The assay deals with endogenous cellular STAT1 (phosphorylated at Tyr701) in NCI-H1373 cells. The assay is described as follows: Phospho-STAT1 (Tyr701) LANCE Ultra TR-FRET Detection Assay. The following applies: Homo sapiens, NCI-H1373, 48 h, phospho-STAT1 (Tyr701) induction, read-out: NH1373 pSTAT1 EC50. It counts as cell-based.

The EC50 is the concentration at which the effect is half-maximal. Consider `Nc1nc(-c2cc3ncn(CCC[C@H](COC(F)F)Nc4cn[nH]c(=O)c4C(F)(F)F)c(=O)c3cc2F)ccc1C(F)(F)F` [Example 390, (R)-7-(6-amino-5-(trifluoromethyl)pyridin-2-yl)-3-(5-(difluoromethoxy)-4-((6-oxo-5-(trifluoromethyl)-1,6-dihydropyridazin-4-yl)amino)pentyl)-6-fluoroquinazolin-4(3H)-one], for which the EC50 is 11.7 nM. As for `CC[C@@H](CCCn1cnc2cc(-c3ccc(C(F)F)cn3)c(F)cc2c1=O)Nc1cn[nH]c(=O)c1C(F)(F)F` [Example 338, (S)-7-(5-(difluoromethyl)pyridin-2-yl)-6-fluoro-3-(4-((6-oxo-5-(trifluoromethyl)-1,6-dihydropyridazin-4-yl)amino)hexyl)quinazolin-4(3H)-one], the EC50 was 218 nM.

Regarding `O=c1[nH]ncc(Nc2cccc(Cn3ccc4cc(-c5ncc(C(F)(F)F)cn5)c(F)cc4c3=O)c2)c1C(F)(F)F` [Example 91, 7-fluoro-2-[[3-[[6-oxo-5-(trifluoromethyl)-1H-pyridazin-4-yl]amino]phenyl]methyl]-6-[5-(trifluoromethyl)pyrimidin-2-yl]isoquinolin-1-one], the EC50 is 290 nM.

With `CC[C@@H](CCCn1cnc2cc(-c3ccc(OC(F)F)cn3)c(F)cc2c1=O)Nc1cn[nH]c(=O)c1C(F)(F)F` [Example 340, (S)-7-(5-(difluoromethoxy)pyridin-2-yl)-6-fluoro-3-(4-((6-oxo-5-(trifluoromethyl)-1,6-dihydropyridazin-4-yl)amino)hexyl)quinazolin-4(3H)-one], the EC50 amounted to 97.1 nM. To `O=c1[nH]ncc(N[C@@H](CO)CCCn2ccc3cc(-c4ncc(C(F)(F)F)cn4)c(F)cc3c2=O)c1C(F)(F)F` [Example 88, 7-fluoro-2-[(4R)-5-hydroxy-4-[[6-oxo-5-(trifluoromethyl)-1H-pyridazin-4-yl]amino]pentyl]-6-[5-(trifluoromethyl)pyrimidin-2-yl]isoquinolin-1-one] belongs 86.2 nM; to `O=c1[nH]ncc(N[C@H](CCCn2cnc3cc(-c4cnc(OC(F)F)cn4)c(F)cc3c2=O)COC(F)F)c1C(F)(F)F` [Example 373, (R)-3-(5-(difluoromethoxy)-4-((6-oxo-5-(trifluoromethyl)-1,6-dihydropyridazin-4-yl)amino)pentyl)-7-(5-(difluoromethoxy)pyrazin-2-yl)-6-fluoroquinazolin-4(3H)-one], 16.6 nM; to `O=c1[nH]ncc(N2C[C@H](F)C[C@H]2CCCn2ccc3cc(-c4ncc(C(F)(F)F)cn4)c(F)cc3c2=O)c1C(F)(F)F` [Example 140, 7-fluoro-2-[3-[(2R,4R)-4-fluoro-1-[6-oxo-5-(trifluoromethyl)-1H-pyridazin-4-yl]pyrrolidin-2-yl]propyl]-6-[5-(trifluoromethyl)pyrimidin-2-yl]isoquinolin-1-one], 585 nM.

As for `C[C@@H](CCCn1ccc2cc(-c3ncc4c(n3)NCCO4)c(F)cc2c1=O)Nc1cn[nH]c(=O)c1C(F)(F)F` [Example 118, 6-(7,8-dihydro-6H-pyrimido[5,4-b] [1,4]oxazin-2-yl)-7-fluoro-2-[(4S)-4-[[6-oxo-5-(trifluoromethyl)-1H-pyridazin-4-yl]amino]pentyl]isoquinolin-1-one], the EC50 was 9.84 nM.

In the case of `Nc1nc(-c2cc3ncn(CCC[C@@H](Nc4cn[nH]c(=O)c4C(F)(F)F)C4CC4)c(=O)c3cc2F)ncc1C(F)(F)F` [Example 469, 7-[4-amino-5-(trifluoromethyl)pyrimidin-2-yl]-3-[(4R)-4-cyclopropyl-4-[[6-oxo-5-(trifluoromethyl)-1H-pyridazin-4-yl]amino]butyl]-6-fluoro-quinazolin-4-one], the concentration for a half-maximal effect (EC50) came to 14.5 nM.

As to `COc1cnc(-c2cc3ccn(CCC[C@@H](Nc4cn[nH]c(=O)c4C(F)(F)F)C4CC4)c(=O)c3cc2F)nc1N` [Example 146, 6-(4-amino-5-methoxypyrimidin-2-yl)-2-[(4R)-4-cyclopropyl-4-[[6-oxo-5-(trifluoromethyl)-1H-pyridazin-4-yl]amino]butyl]-7-fluoroisoquinolin-1-one], the EC50 was 14.5 nM.

Regarding `Nc1nc(-c2cc3ccn(C[C@@H]4CCC[C@H](Oc5cn[nH]c(=O)c5C(F)(F)F)C4)c(=O)c3cc2F)ncc1C(F)(F)F` [Example 455, 6-(4-amino-5-(trifluoromethyl)pyrimidin-2-yl)-7-fluoro-2-(((1R,3S)-3-((6-oxo-5-(trifluoromethyl)-1,6-dihydropyridazin-4-yl)oxy)cyclohexyl)methyl)isoquinolin-1(2H)-one], the EC50 was found to be 38.2 nM. `C[C@@H](CCCn1ccc2cc(-c3cnc(C(F)F)c(N)n3)c(F)cc2c1=O)Nc1cn[nH]c(=O)c1C(F)(F)F` [Example 324, (S)-6-(6-amino-5-(difluoromethyl)pyrazin-2-yl)-7-fluoro-2-(4-((6-oxo-5-(trifluoromethyl)-1,6-dihydropyridazin-4-yl)amino)pentyl)isoquinolin-1(2H)-one]: the EC50 stood at 4.65 nM.

Turning to `Nc1nc(-c2cc3ccn(C[C@@H]4CC[C@H](Nc5cn[nH]c(=O)c5C(F)(F)F)C4)c(=O)c3cc2F)ncc1C(F)(F)F` [Example 444, 6-(4-amino-5-(trifluoromethyl)pyrimidin-2-yl)-7-fluoro-2-(((1R,3S)-3-((6-oxo-5-(trifluoromethyl)-1,6-dihydropyridazin-4-yl)amino)cyclopentyl)methyl)isoquinolin-1(2H)-one], the EC50 stood at 25.1 nM.

For the compound `N#Cc1ccc(-c2cc3ccn(CCC[C@H](COC(F)F)Nc4cn[nH]c(=O)c4C(F)(F)F)c(=O)c3cc2F)nc1N` [Example 411, (R)-2-amino-6-(2-(5-(difluoromethoxy)-4-((6-oxo-5-(trifluoromethyl)-1,6-dihydropyridazin-4-yl)amino)pentyl)-7-fluoro-1-oxo-1,2-dihydroisoquinolin-6-yl)nicotinonitrile], the EC50 amounted to 5.28 nM. In the case of `CN(C)C[C@@H](CCCn1ccc2cc(-c3ncc(C(F)(F)F)cn3)c(F)cc2c1=O)Nc1cn[nH]c(=O)c1C(F)(F)F` [Example 473, 2-[(4R)-5-(dimethylamino)-4-[[6-oxo-5-(trifluoromethyl)-1H-pyridazin-4-yl]amino]pentyl]-7-fluoro-6-[5-(trifluoromethyl)pyrimidin-2-yl]isoquinolin-1-one], the EC50 is 969 nM. `C[C@@H](CCCn1ccc2cc(-c3nc(N)c4c(n3)COC4)c(F)cc2c1=O)Nc1cn[nH]c(=O)c1C(F)(F)F` [Example 357, (S)-6-(4-amino-5,7-dihydrofuro[3,4-d]pyrimidin-2-yl)-7-fluoro-2-(4-((6-oxo-5-(trifluoromethyl)-1,6-dihydropyridazin-4-yl)amino)pentyl)isoquinolin-1(2H)-one]: the EC50 came to 143 nM. For `COc1cnc(-c2cc3ccn(CCC[C@H](COC(F)F)Nc4cn[nH]c(=O)c4C(F)(F)F)c(=O)c3cc2F)nc1N` [Example 370, (R)-6-(4-amino-5-methoxypyrimidin-2-yl)-2-(5-(difluoromethoxy)-4-((6-oxo-5-(trifluoromethyl)-1,6-dihydropyridazin-4-yl)amino)pentyl)-7-fluoroisoquinolin-1(2H)-one], the EC50 was determined as 8.33 nM. As for `CC[C@@H](CCCn1cnc2cc(-c3ncc(C(F)F)c(N)n3)c(F)cc2c1=O)Nc1cn[nH]c(=O)c1C(F)(F)F` [Example 320, (S)-7-(4-amino-5-(difluoromethyl)pyrimidin-2-yl)-6-fluoro-3-(4-((6-oxo-5-(trifluoromethyl)-1,6-dihydropyridazin-4-yl)amino)hexyl)quinazolin-4(3H)-one], the EC50 worked out at 31.2 nM. For `COc1cnc(-c2cc3ccn(CCCC4CCN4c4cn[nH]c(=O)c4C(F)(F)F)c(=O)c3cc2F)nc1N` (stereo not shown) [Example 153, 6-(4-amino-5-methoxy-pyrimidin-2-yl)-7-fluoro-2-[3-[1-[6-oxo-5-(trifluoromethyl)-1H-pyridazin-4-yl]azetidin-2-yl]propyl]isoquinolin-1-one], the EC50 is 10.9 nM. On to `C[C@@H](CCCn1ccc2cc(-c3nc4cnccn4n3)c(F)cc2c1=O)Nc1cn[nH]c(=O)c1C(F)(F)F` [Example 334, (S)-6-([1,2,4]triazolo[1,5-a]pyrazin-2-yl)-7-fluoro-2-(4-((6-oxo-5-(trifluoromethyl)-1,6-dihydropyridazin-4-yl)amino)pentyl)isoquinolin-1(2H)-one], for which the half-maximal effective concentration (EC50) is 24.1 nM. `[2H]C([2H])([2H])OC[C@@H](CCCn1ccc2cc(-c3ncc(C(F)F)cn3)c(F)cc2c1=O)Nc1cn[nH]c(=O)c1C(F)(F)F` [Example 428, 6-[5-(difluoromethyl)pyrimidin-2-yl]-7-fluoro-2-[(4R)-4-[[6-oxo-5-(trifluoromethyl)-1H-pyridazin-4-yl]amino]-5-(trideuteriomethoxy)pentyl]isoquinolin-1-one]: the EC50 amounted to 4.17 nM. Turning to `O=c1[nH]ncc(N[C@H]2CCC[C@@H](Cn3ccc4cc(-c5ncc(C6CC6)cn5)c(F)cc4c3=O)C2)c1C(F)(F)F` [Example 241], the EC50 was found to be 6.38 nM. As for `Nc1nc(-c2cc3ccn(CCC[C@H](CO)Nc4cn[nH]c(=O)c4C(F)(F)F)c(=O)c3cc2F)ccc1C(F)(F)F` [Example 167, 6-[6-amino-5-(trifluoromethyl)pyridin-2-yl]-7-fluoro-2-[(4R)-5-hydroxy-4-[[6-oxo-5-(trifluoromethyl)-1H-pyridazin-4-yl]amino]pentyl]isoquinolin-1-one], the EC50 turned out to be 103 nM.

In the case of `O=c1[nH]ncc(N[C@@H](CO)CCCn2cnc3cc(-c4ncc(C(F)(F)F)cn4)c(F)cc3c2=O)c1C(F)(F)F` [Example 164, 6-fluoro-3-[(4R)-5-hydroxy-4-[[6-oxo-5-(trifluoromethyl)-1H-pyridazin-4-yl]amino]pentyl]-7-[5-(trifluoromethyl)pyrimidin-2-yl]quinazolin-4-one], the EC50 was found to be 219 nM. As for `C[C@@H](CCCn1ccc2cc(-c3ncc(C(F)(F)F)c(N)n3)c(F)c(F)c2c1=O)Nc1cn[nH]c(=O)c1C(F)(F)F` [Example 81, (S)-6-(4-amino-5-(trifluoromethyl)pyrimidin-2-yl)-7,8-difluoro-2-(4-((6-oxo-5-(trifluoromethyl)-1,6-dihydropyridazin-4-yl)amino)pentyl)isoquinolin-1(2H)-one], the EC50 is 4.26 nM.
